Non-standard residues stand in square brackets, D forms with d. Nle = CCCC[C@H](N)C(=O)O
Key:
Format in all cases: cell-based, human
[1] = system: melanocyte strain 1505b; test: Cell proliferation as a measure of stability, strain 1505b
[2] = system: melanocyte strain 103c; test: UV-induced apoptosis by Annexin V staining, strain 103c; conditions: 1 nM, 4 days prior and 1 day following 105 mJ/cm^2 UV
Description: With reference to FIGS. 12 and 13, melanocytes were maintained for the duration of the experiment in medium lacking bovine pituitary extract (BPE) to determine the survival effect of α-MSH or its analogs in the absence of the anti-apoptotic effect of TPA. Melanocytes were treated with 0, 1 nM α-MSH, 1 μM Forskolin, or 1 nM NDP-MSH or CUV9900 for 4 days prior to, and 24 h after exposure to a dose of 105 mJ/cm^2 UV, then stained for Annexin Va staining. The data are represented as percent increase above control, with triplicate dishes included in each group.
Comparison of the effect of CUV9900, NDP-MSH and MSH on the UV-induced apoptosis were made in the melanocyte strains 103c and melanocyte strain 1513c of FIGS. 12 and 13, respectively. Both strains were treated with 1 nM CUV9900, NDP and MSH, respectively for 4 days prior and 1 day following irradiation. Floating as well as attached cells were harvested and stained for Annexin V, and analyzed by flow cytometry.

[3] = system: melanocytic strains 1563c and 102b; test: Ultrastructural visualization of DOPA-stained HM (electron microscopy); conditions: 0.1 nM or 1 nM CUV9900, 1 nM MSH
Description: With reference to FIGS. 14 and 15, two melanocytic strains, a lightly pigmented strain 1563c of FIG. 14 and strain 102b of FIG. 15 were plated in 4-well chamber slides and treated […] with either 0.1 nM or 1 nM CUV9900 or 1 nM MSH for a total of 6 days. Cells were processed for electron microscopy in the presence or absence of histochemical reaction with DOPA. Microtome sections were analyzed in a JEOL JEM-1230 transmission electron microscope and photomicrographs (15,000×) of the perinuclear area and dendrites were taken for each experimental group.

[4] = system: melanocyte strain 102b; test: Tyrosinase activity dose-response, strain 102b; conditions: subnanomolar concentrations
Description: Cell numbers as well as tyrosinase activity were then determined. Tyrosinase activity was calculated first at activity/10^6 cells, and then as % of control. […] The conditioned medium from each dish was collected to be assayed for tyrosinase activity, and the cell numbers were determined using a Coulter Counter. Triplicate dishes were included in each group, and duplicate samples from each dish were assayed for tyrosinase activity.

[5] = system: melanocytic strain 1505b; test: UV-induced generation of hydrogen peroxide (luminol), strain 1505b; conditions: 1 nM
Excerpt: (§1) With reference to FIGS. 10 and 11, melanocytes were irradiated with a bank of FS 20 lamps, with 75% emission in the UVB, and 25% emission in the UVA spectra, with peak emission at 313 nm wavelength. Any emission of UVC rays from the UV source (FS 20 lamps) was blocked by Kodacel filter. Prior to irradiation, the culture medium was replaced by PBS, which was removed after UV exposure, and fresh medium added.
(§2) Melanocytes were irradiated with 105 mJ/cm^2 UV, and treated immediately while in PBS with 0, 1 nM α-MSH or 1 nM CUV9900. Generation of hydrogen peroxide, representative of reactive oxygen species (ROS), was determined by measuring the luminescence of luminol at 0, 30, and 45 min after UV exposure. Triplicate dishes were included in each group, and duplicate samples from each dish were used for measurement of hydrogen peroxide at each time point. Each data point represents the mean of 6 determinations/group±S.E.
(§3) In the melanocytic strain 1505b of FIG. 10 and melanocytic strain 103c of FIG. 11, hydrogen peroxide generation was assessed at 0, 30 and 45 minutes after UV irradiation.

[6] = system: melanocytes strain 1513c; test: cAMP levels, radioimmunoassay, strain 1513c; conditions: 45 min, 0.1 mM IBMX
Description: Dose-response experiments were carried out on three melanocytic strains, namely strains 1513c, 1505b and 105c melanocytes were treated with 1 pM-10 nM CUV9900 or NDP-MSH, or with 0.1-10 nM MSH for 45 minutes in the presence of 0.1 mM isobutyl methylxanthine (IBMX). The results obtained from strain 1513c are shown in FIG. 3, the results obtained from strain 1505b are shown in FIG. 5a and the results obtained from strain 105c are shown in FIG. 5b. The strains 1505b and 1513c were obtained from the same human adult while the strain 105c was obtained from another human adult. Cyclic AMP is the second messenger for the melanocortin-1 receptor, and assessment is usually performed indicating cellular activity reflective of melanogenesis. Cyclic AMP levels were determined using ^125I-labeled radioimmunoassay kit (Perkin Elmer, Waltham, Mass.), in human melanocytes that were treated with 0 (control), 0.1-10.0 nM α-MSH, or 0.001-10 nM NDP-MSH or 0.001-10.0 nM CUV 9900 for […]. in the presence of 0.1 mM IBMX, a phosphodiesterase inhibitor to prevent cAMP degradation. Triplicate wells were included in each group, and duplicate samples from each well were assayed for cAMP levels. Each data point is the mean percent of control of 6 determinations/group±S.E.

[7] = system: melanocytic strain 103c; test: UV-induced generation of hydrogen peroxide (luminol), strain 103c; conditions: 1 nM, 105 mJ/cm^2 UV, 0, 30 and 45 minutes after irradiation
Excerpt: as §1, §2, §3

Ac-Nle-Glu His-D-Phe-Arg-Trp-NH2 (Ac-[Nle]EH[dF]RW-NH2; SMILES CCCC[C@H](NC(C)=O)C(=O)N[C@@H](CCC(=O)O)C(=O)N[C@@H](Cc1c[nH]cn1)C(=O)N[C@H](Cc1ccccc1)C(=O)N[C@@H](CCCNC(=N)N)C(=O)N[C@@H](Cc1c[nH]c2ccccc12)C(N)=O) [CUV9900, hexapeptide alpha-MSH analogue]
more stable in comparison to MSH (cell proliferation) [1]: 2.6%
more stable than NDP-MSH (cell proliferation) [1]: 10.16%
Cell proliferation (cell number), column 2 ([1]; 1 nM): 120% of control
Cell proliferation (cell number), column 3 ([1]; 1 nM): 108% of control
anti-apoptotic effect (Annexin V), comparison [2]: equal anti-apoptotic effect than NDP-MSH
melanosomes and DOPA reactivity by electron microscopy [3]: increased mature (stage IV) melanosomes in the perinuclear area and more so in dendrites
stimulation of tyrosinase activity, comparison [4]: greater stimulation of tyrosinase activity than NDP-MSH
hydrogen peroxide generation, comparison ([5]; 45 minutes after irradiation): lower hydrogen peroxide generation in comparison with both NDP-MSH and MSH
UV-induced hydrogen peroxide generation ([5]; strain 1505b, 105 mJ/cm^2 UV, 0, 30 and 45 minutes after irradiation): significant reduction of UV-induced hydrogen peroxide generation
cAMP, potency comparison ([6]; 0.1 nM): more potent than NDP-MSH
maximal level of cAMP, comparison ([6]; 10 nM): higher maximal level of cAMP than MSH
UV-induced hydrogen peroxide generation [7]: significant reduction of UV-induced hydrogen peroxide generation

Reference: patent US20130331331A1, “HEXAPEPTIDE WITH IMPROVED ACTIVITY IN THE REPAIR OF CELLULAR DNA OF DERMAL CELLS” (priority 2011, published 2013)
